# Measured values: patent US20130030055A1, “COMPOSITIONS AND METHODS FOR TREATING HAIR LOSS, HAIR THINNING, AND HAIR COLOR LOSS” (priority 2010, published 2013)
# Tests used:
# Assay type in all cases: in vivo, human
# [1] = system: eyelashes; assay: Open-label study of bimatoprost 0.03% on eyelid lash line: photographic Global Eyelash Assessment (GEA)
# Protocol: To assess the safety, efficacy, and subjective experience of using dermal application of bimatoprost 0.03% for the growth of natural eyelashes and as described herein hair in at least one eyebrow region, a prospective, open-label study of subjects who desired longer, thicker (fuller), and darker natural eyelashes was conducted.
# This was a prospective, open-label study of subjects who wanted to grow more prominent eyelashes. […] The protocol was in compliance with the Declaration of Helsinki and in accordance with applicable Institutional Review Board regulations approved Aug. 28, 2005. Study subjects gave informed consent prior to initiation of any study-related procedures.
# (§1) Subjects were instructed to apply bimatoprost 0.03% to the eyelid lash line once daily for 12 weeks using an applicator (Studio Basics Professional Tools Eye Applicators, Paris Presents Incorporated, Gumee, Ill.) for each upper eyelid each evening and, if necessary, to wipe the areas immediately around the eyelid afterward to remove excess medication. Periodic use of artificial tears was allowed, but only prior to administration of bimatoprost 0.03%.
# Photographic Documentation and Analysis. Frontal-(with eyes open) and side-view photographs were taken of the subjects' eyes at each visit; frontal-view images with eyes closed were taken starting at week 1. The photographic assessment planned as a primary a priori endpoint was a dynamic measure assessing change at each visit from baseline photos. The dynamic scale of global change in increased length, thickness, pigmentation, and number of lashes was +0=no change, +½=little change, +1=mild noticeable change, +2=moderate notable change, and +3=major very notable change. A static photographic assessment was calculated. Photographs from subjects who had frontal eyes-closed images available from weeks 1 and 12 were evaluated in a post hoc analysis and scored independently by 2 raters using a validated Global Eyelash Assessment (GEA) scale, designed to objectively evaluate the quality of a subject's eyelashes. One evaluator was a physician and the other was a health outcomes researcher employed by the study sponsor. In this clinician-graded assessment, overall eyelash prominence was rated on a scale from 1 (minimal) to 4 (very marked). The two independently assessed scores for each photograph (1 from each evaluator) were averaged and the change from week 1 was calculated for each patient.
# (§2) Statistical Analyses. A 2-sided paired t-test was used to evaluate the intraocular pressure change from baseline, and the GEA change from week 1 to week 12 was compared using a Wilcoxon signed-rank test. Analysis of intraocular pressure was performed on a per-eye and per-subject basis. A significance level of 0.05 was used for all statistical tests. Categorical variables were summarized with frequency, count, and percentages.
# [2] = system: eyelashes; assay: Open-label study: health outcomes questionnaires and verbal responses
# From the text: Subjects were instructed to apply bimatoprost 0.03% to the eyelid lash line once daily for 12 weeks using an applicator (Studio Basics Professional Tools Eye Applicators, Paris Presents Incorporated, Gumee, Ill.) for each upper eyelid each evening and, if necessary, to wipe the areas immediately around the eyelid afterward to remove excess medication. Periodic use of artificial tears was allowed, but only prior to administration of bimatoprost 0.03%. Health Outcomes Questionnaires. A questionnaire was used to track adverse events and to assess the subjects' satisfaction with treatment and their subjective evaluation of their eyelashes' appearance. Subjects were asked to answer all questions and return the questionnaire at weeks 4, 8, and 12. Subjects were also asked to respond verbally to 2 additional questions and their responses were recorded by site staff (FIGS. 1-4).
# [3] = Open-label study: intraocular pressure measurements
# From the text: as §1
# Clinical Examinations. Assessments were conducted at baseline and at weekly study visits at weeks 1, 4, 8, 12 (end of treatment period), and 16 (post-treatment follow-up period). At each visit, subjects underwent a complete eye examination by an ophthalmologist that included intraocular pressure measurements, visual acuity, and biomicroscopy. Subjects were queried at each visit for adverse events and these were recorded by the investigator. The presence of periorbital darkening was noted and graded on a scale of 0 to 4, and adverse event data were collected at each visit during the treatment period.
# as §2
# [4] = Randomized vehicle-controlled study: adverse events
# Protocol: Safety measurements collected during this study included adverse events, ophthalmic examination variables (iris color, IOP, visual acuity, biomicroscopy, and ophthalmoscopy), physical examination, vital signs, and pregnancy testing.
# Safety data (adverse events, ophthalmic examination variables, physical examination, and vital signs variables) were summarized by descriptive statistics and/or frequency tables and were analyzed by appropriate nonparametric statistical methods (Pearson's chi-square test, Wilcoxon rank sum test) and/or parametric tests (ANOVA, t-test). The safety analyses were based on the safety population. No data imputation for missing visits or values was performed.
smiles,measurement,setting,value
CCNC(=O)CCC/C=C\C[C@@H]1[C@@H](/C=C/[C@@H](O)CCc2ccccc2)[C@H](O)C[C@@H]1O [bimatoprost],Mean GEA score at week 1,[1]; 17 subjects with week-1 GEA scores of 1 or 2,1.88±0.33
same,Mean increase in GEA score at week 12,"[1]; 17 subjects with week-1 GEA scores of 1 or 2, P<0.0001",1.41±0.44
same,Mean change in GEA score from week 1 to week 12,"[1]; all 19 subjects, P<0.0001",1.37±0.44
same,Mean week-1 GEA score,"[1]; all 19 subjects, scale 1 to 4",2.0±0.47
same,Subjects rated GEA 2 (moderate),[1]; week 1 (15/19),79.0%
same,Subjects rated GEA 3 (marked) or higher,[1]; week 12 (18/19),94.7%
same,Subjects who noticed changes in eyelashes by week 12,[2]; 16 respondents at week 12,3 subjects
same,Subjects who noticed changes in eyelashes within the first month,[2]; 16 respondents at week 12,3 subjects
same,Subjects who noticed changes in eyelashes within the first week,[2]; 16 respondents at week 12,One
same,Respondents who had started to notice changes in their eyelashes by week 8,[2]; 16 respondents at week 12 (9/16),56.3%
same,"Respondents indicating eyelashes were ""improved"" or ""much improved""","[2]; by week 12, all respondents",16 respondents
same,"Respondents answering yes to ""Do your eyes sting or burn upon application?""",[2]; week 4 (8/19),42.2%
same,"Respondents answering yes to ""Do your eyes sting or burn upon application?""",[2]; week 8 (6/18),33.3%
same,"Respondents answering yes to ""Do your eyes sting or burn upon application?""",[2]; week 12 (4/15),26.7%
same,"Respondents agreeing ""very much/much"" that they had done something positive for their appearance",[2]; week 12 (12/16),75%
same,"Respondents agreeing ""very much/much"" that the treatment was helpful",[2]; week 12 (15/16),94%
same,Subjects indicating both longer and thicker,"[2]; week 12, 16 respondents",1 subject
same,"Subjects reporting all 3 options, longer, thicker, and darker","[2]; week 12, 16 respondents",3 subjects
same,"Respondents choosing ""longer"" as the eyelash change they noticed most","[2]; week 12, Twelve of the 16 respondents",81.3%
same,Respondents who had noticed growth or darkening of their eyelashes (verbal question),"[2]; week 12, all 23 respondents",100%
same,Respondents indicating yes at least once to sting or burn upon application,"[2]; weeks 4, 8, 12",10 respondents
same,Mean change from baseline in intraocular pressure across all weeks (per eye),"[3]; bimatoprost 0.03% once daily to eyelid lash line for 12 weeks, per eye",+0.98 to −0.81 mm Hg
same,Mean change from baseline in intraocular pressure across all weeks (per subject),"[3]; bimatoprost 0.03% once daily to eyelid lash line for 12 weeks, per subject",+0.98 to −0.79 mm Hg
same,Mean change from baseline intraocular pressure at each time point,[3]; each time point,less than 1 mm Hg
same,Per-eye intraocular pressure change from baseline,"[3]; week 1, P=0.0470",−0.81±2.72 mm Hg
same,Per-eye intraocular pressure change from baseline,"[3]; week 4, P=0.0412",0.98±3.23
same,Clinical significance of changes in intraocular pressure,[3]; within accepted variability of the test,not clinically significant
same,Subjects reporting conjunctival hyperemia as an adverse event,"[4]; 5/137, 0.03% solution once daily for 4 months",3.6%
same,Overall safety and tolerability,[4]; healthy adult subjects,safe and well-tolerated
